These molecules were tested against FGFR2 (Homo sapiens, UniProt P21802) (assay: FGFR wild type enzyme assay (HTRF KinEASE-TK), FGFR2). Conditions: Enz FGFR2 (nM), FGFR2 wild type enzyme assay.
Sequence of FGFR2 (P21802 399-821 limits assumed): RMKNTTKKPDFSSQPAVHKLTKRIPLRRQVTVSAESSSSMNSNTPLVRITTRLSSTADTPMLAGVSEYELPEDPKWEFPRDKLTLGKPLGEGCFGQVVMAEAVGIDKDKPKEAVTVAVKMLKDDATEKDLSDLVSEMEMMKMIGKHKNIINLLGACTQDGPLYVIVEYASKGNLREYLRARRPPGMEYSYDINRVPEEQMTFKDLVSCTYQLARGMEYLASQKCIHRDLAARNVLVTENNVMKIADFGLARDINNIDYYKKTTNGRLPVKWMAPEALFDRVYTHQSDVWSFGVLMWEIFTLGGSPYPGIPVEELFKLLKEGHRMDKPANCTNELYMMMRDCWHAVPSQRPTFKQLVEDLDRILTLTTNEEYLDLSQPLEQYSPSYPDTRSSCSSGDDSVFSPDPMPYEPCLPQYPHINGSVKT
Description: Activity against FGFR wild type and mutant enzymes were determined in biochemical assays using purified intracellular domains of the respective isoforms using HTRF KinEASE-TK assay technology from CisBio, now PerkinElmer. (Catalogue number 62TK0PEC). Briefly test compounds were tested in 11 point 1:3 serial dilutions, typical final concentration ranges from 10,000 nM to 0.17 nM. Test compounds were dissolved in DMSO and added to assay plates using acoustic transfer. Enzyme was pre-incubated with test compound for 30 minutes and the assay was initiated by addition of ATP and TK-peptide substrate. After 60 minutes at room temperature the reaction was quenched with detection reagent and incubated for an additional 60 minutes at room temperature. The plates were read using a multimode reader and the emission ratio of 665 nm to 615 nm was determined. This ratio was converted to percent of control (POC). [1-(high control-sample signal)/(high control-low control)]*100. Wells without compound were used to determine high control values and wells without enzyme were used to determine low control values. The POC values were fit using a four-parameter logistic model and the value where the fit curve was equal to 50 POC was reported as the IC50 using the Signals Vitro Vivo software package (PerkinElmer). Final assay conditions were: 50 mM HEPES pH7.5, 10 mM MgCl2, 1 mM EDTA, 0.01% Brij-35, 2 mM MnCl2, 1 mM DTT, and 0.5 uM TK-peptide.

IC50 [nM] | SMILES
1 | CC(=O)N1CC[C@@H](n2cc(-c3cc(Sc4ccc(F)cc4C#N)c4c(C#N)cnn4c3)cn2)C[C@H]1C [Example 412, 6-(1-((2R,4R)-1-acetyl-2-methylpiperidin-4-yl)-1H-pyrazol-4-yl)-4-((2-cyano-4-fluorophenyl)thio)pyrazolo [1,5-a]pyridine-3-carbonitrile]
3 | Cc1nn([C@H]2CCCNC2)cc1-c1cc(Sc2ccccc2C#N)c2c(C#N)cnn2c1 [Example 413, (S)-4-((2-cyanophenyl)thio)-6-(3-methyl-1-(piperidin-3-yl)-1H-pyrazol-4-yl)pyrazolo[1,5-a]pyridine-3-carbonitrile]
7 | Cc1nn([C@H]2CCCNC2)cc1-c1cc(Sc2ccc(F)cc2C#N)c2c(C#N)cnn2c1 [Example 414, (S)-4-((2-cyano-4-fluorophenyl)thio)-6-(3-methyl-1-(piperidin-3-yl)-1H-pyrazol-4-yl)pyrazolo[1,5-a]pyridine-3-carbonitrile]
7 | Cc1nn([C@H]2CCCNC2)cc1-c1cc(Sc2ncccc2F)c2c(C#N)cnn2c1 [Example 415, (S)-4-((3-fluoropyridin-2-yl)thio)-6-(3-methyl-1-(piperidin-3-yl)-1H-pyrazol-4-yl)pyrazolo[1,5-a]pyridine-3-carbonitrile]
4 | Cc1nn([C@H]2CCCN(C(=O)CO)C2)cc1-c1cc(Sc2ncccc2F)c2c(C#N)cnn2c1 [Example 420, (S)-4-((3-fluoropyridin-2-yl)thio)-6-(1-(1-(2-hydroxyacetyl)piperidin-3-yl)-3-methyl-1H-pyrazol-4-yl)pyrazolo[1,5-a]pyridine-3-carbonitrile]
5 | N#Cc1cnn2cc(-c3cnn([C@H]4CCNC4)c3)cc(Sc3ncccc3F)c12 [Example 421, (S)-4-((3-fluorop;yridin-2-yl)thio)-6-(1-(pyrrolidin-3-yl)-1H-pyrazol-4-yl)pyrazolo[1,5-a]pyridine-3-carbonitrile]
259 | CC(=O)N1CCC(n2ncc(-c3cc(Sc4ncccc4F)c4c(C#N)cnn4c3)c2CO)CC1 [Example 423, 6-(1-(1-acetylpiperidin-4-yl)-5-(hydroxymethyl)-1H-pyrazol-4-yl)-4-((3-fluoropyridin-2-yl)thio)pyrazolo[1,5-a]pyridine-3-carbonitrile]
46 | COCc1c(-c2cc(Sc3ccccc3C#N)c3c(C#N)cnn3c2)cnn1C1CCN(C)CC1 [Example 424, 4-((2-cyanophenyl)thio)-6-(5-(methoxymethyl)-1-(1-methylpiperidin-4-yl)-1H-pyrazol-4-yl)pyrazolo[1,5-a]pyridine-3-carbonitrile]
6 | CC(=O)N1CCC[C@H](n2cc(-c3cc(Sc4ccc(F)cc4C#N)c4c(C#N)cnn4c3)c(C)n2)C1 [Example 425, (S)-6-(1-(1-acetylpiperidin-3-yl)-3-methyl-1H-pyrazol-4-yl)-4-((2-cyano-4-fluorophenyl)thio)pyrazolo [1,5-a]pyridine-3-carbonitrile]
4 | Cc1nn([C@H]2CCCN(C(=O)CO)C2)cc1-c1cc(Sc2ccc(F)cc2C#N)c2c(C#N)cnn2c1 [Example 426, (S)-4-((2-cyano-4-fluorophenyl)thio)-6-(1-(1-(2-hydroxyacetyl)piperidin-3-yl)-3-methyl-1H-pyrazol-4-yl)pyrazolo[1,5-a]pyridine-3-carbonitrile]
0.4 | N#Cc1ccccc1Sc1cc(-c2cnn([C@H]3CCNC3)c2)cn2ncc(C#N)c12 [Example 427, (S)-4-((2-cyanophenyl)thio)-6-(1-(pyrrolidin-3-yl)-1H-pyrazol-4-yl)pyrazolo[1,5-a]pyridine-3-carbonitrile]
1 | CC(=O)N1CCC(n2cc(-c3cc(Sc4ncccc4F)c4c(C#N)cnn4c3)cn2)CC1 [Example 428, 6-(1-(1-acetylpiperidin-4-yl)-1H-pyrazol-4-yl)-4-((3-fluoropyridin-2-yl)thio)pyrazolo[1,5-a]pyridine-3-carbonitrile]
1 | CC(=O)N1CCC(n2cc(-c3cc(Sc4ccc(F)cc4C#N)c4c(C#N)cnn4c3)cn2)CC1 [Example 429, 6-(1-(1-acetylpiperidin-4-yl)-1H-pyrazol-4-yl)-4-((2-cyano-4-fluorophenyl)thio)pyrazolo [1,5-a]pyridine-3-carbonitrile]
10 | CN1CCC(n2cc(-c3cc(Sc4ncccc4F)c4c(C#N)cnn4c3)nn2)CC1 [Example 430, 4-((3-fluoropyridin-2-yl)thio)-6-(1-(1-methylpiperidin-4-yl)-1H-1,2,3-triazol-4-yl)pyrazolo[1,5-a]pyridine-3-carbonitrile]
2 | CC(=O)N1CCC[C@H](n2ncc(-c3cc(Sc4nc(C)c(F)cc4F)c4c(C#N)cnn4c3)c2C)C1 [Example 431, (S)-6-(1-(1-acetylpiperidin-3-yl)-5-methyl-1H-pyrazol-4-yl)-4-((3,5-difluoro-6-methylpyridin-2-yl)thio)pyrazolo[1,5-a]pyridine-3-carbonitrile]
3 | CC(=O)N1CCC(n2cc(-c3cc(Sc4ccc(F)cc4C#N)c4c(C#N)cnn4c3)c(C)n2)CC1 [Example 432, 6-(1-(1-acetylpiperidin-4-yl)-3-methyl-1H-pyrazol-4-yl)-4-((2-cyano-4-fluorophenyl)thio)pyrazolo [1,5-a]pyridine-3-carbonitrile]

IC50 [nM] | SMILES
5 | Cc1c(-c2cc(Sc3ccc(F)cc3C#N)c3c(C#N)cnn3c2)cnn1[C@H]1CCCN(c2ncccn2)C1 [Example 433, (S)-4-((2-cyano-4-fluorophenyl)thio)-6-(5-methyl-1-(1-(pyrimidin-2-yl)piperidin-3-yl)-1H-pyrazol-4-yl)pyrazolo[1,5-a]pyridine-3-carbonitrile]
1 | Cc1c(-c2cc(Sc3ncccc3C#N)c3c(C#N)cnn3c2)cnn1[C@H]1CCCNC1 [Example 434, (S)-4-((3-cyanopyridin-2-yl)thio)-6-(5-methyl-1-(piperidin-3-yl)-1H-pyrazol-4-yl)pyrazolo[1,5-a]pyridine-3-carbonitrile]
1 | N#Cc1cc(F)ccc1Sc1cc(-c2cnn([C@H]3CCCNC3)c2)cn2ncc(C#N)c12 [Example 435, (S)-4-((2-cyano-4-fluorophenyl)thio)-6-(1-(piperidin-3-yl)-1H-pyrazol-4-yl)pyrazolo[1,5-a]pyridine-3-carbonitrile]
1 | CC(=O)N1CCC(n2ncc(-c3cc(Sc4ccccc4C#N)c4c(C#N)cnn4c3)c2C)CC1 [Example 436, 6-(1-(1-acetylpiperidin-4-yl)-5-methyl-1H-pyrazol-4-yl)-4-((2-cyanophenyl)thio)pyrazolo [1,5-a]pyridine-3-carbonitrile]
1 | Cc1c(-c2cc(Sc3ccccc3C#N)c3c(C#N)cnn3c2)cnn1C1CCN(C(=O)C(C)(C)C)CC1 [Example 437, 4-((2-cyanophenyl)thio)-6-(5-methyl-1-(1-pivaloylpiperidin-4-yl)-1H-pyrazol-4-yl)pyrazolo[1,5-a]pyridine-3-carbonitrile]
1 | Cc1c(-c2cc(Sc3ccc(F)cc3C#N)c3c(C#N)cnn3c2)cnn1[C@H]1CC[C@@](O)(CO)CC1 [Example 438, 4-(2-cyano-4-fluoro-phenyl) sulfanyl-6-[1-[4-hydroxy-4-(hydroxymethyl)cyclohexyl]-5-methylpyrazol-4-yl] pyrazolo[1,5-a]pyridine-3-carbonitrile]
1 | Cc1c(-c2cc(Sc3ccc(F)cc3C#N)c3c(C#N)cnn3c2)cnn1[C@@H]1CNC(C)(C)C1 [Example 439, (S)-4-((2-cyano-4-fluorophenyl)thio)-6-(1-(5,5-dimethylpyrrolidin-3-yl)-5-methyl-1H-pyrazol-4-yl)pyrazolo[1,5-a]pyridine-3-carbonitrile]
2 | Cc1c(-c2cc(Sc3ccc(F)cc3C#N)c3c(C#N)cnn3c2)cnn1[C@H]1CNC(C)(C)C1 [Example 440, (R)-4-((2-cyano-4-fluorophenyl)thio)-6-(1-(5,5-dimethylpyrrolidin-3-yl)-5-methyl-1H-pyrazol-4-yl)pyrazolo[1,5-a]pyridine-3-carbonitrile]
3 | Cc1nn([C@H]2CC[C@H](O)CC2)cc1-c1cc(Sc2ccccc2C#N)c2c(C#N)cnn2c1 [Example 441, 4-((2-cyanophenyl)thio)-6-(1-((1r,4r)-4-hydroxycyclohexyl)-3-methyl-1H-pyrazol-4-yl)pyrazolo[1,5-a]pyridine-3-carbonitrile]
8 | Cc1nn([C@H]2CC[C@H](O)CC2)cc1-c1cc(Sc2ncccc2F)c2c(C#N)cnn2c1 [Example 442, 4-((3-fluoropyridin-2-yl)thio)-6-(1-((1r,4r)-4-hydroxycyclohexyl)-3-methyl-1H-pyrazol-4-yl)pyrazolo[1,5-a]pyridine-3-carbonitrile]
4 | Cc1nn([C@H]2CC[C@H](O)CC2)cc1-c1cc(Sc2ccc(F)cc2C#N)c2c(C#N)cnn2c1 [Example 443, 4-((2-cyano-4-fluorophenyl)thio)-6-(1-((1r,4r)-4-hydroxycyclohexyl)-3-methyl-1H-pyrazol-4-yl)pyrazolo[1,5-a]pyridine-3-carbonitrile]
0.3 | CC(=O)N1CCC(n2cc(-c3cc(Sc4ccccc4C#N)c4c(C#N)cnn4c3)cn2)CC1 [Example 444, 6-(1-(1-acetylpiperidin-4-yl)-1H-pyrazol-4-yl)-4-((2-cyanophenyl)thio)pyrazolo [1,5-a]pyridine-3-carbonitrile]
1 | N#Cc1cc(F)ccc1Sc1cc(-c2cnn(C3CCN(C(=O)CO)CC3)c2)cn2ncc(C#N)c12 [Example 445, 4-((2-cyano-4-fluorophenyl)thio)-6-(1-(1-(2-hydroxyacetyl)piperidin-4-yl)-1H-pyrazol-4-yl)pyrazolo[1,5-a]pyridine-3-carbonitrile]
0.5 | N#Cc1ccccc1Sc1cc(-c2cnn(C3CCN(C(=O)CO)CC3)c2)cn2ncc(C#N)c12 [Example 446, 4-((2-cyanophenyl)thio)-6-(1-(1-(2-hydroxyacetyl)piperidin-4-yl)-1H-pyrazol-4-yl)pyrazolo[1,5-a]pyridine-3-carbonitrile]
0.4 | C[C@@H](O)C(=O)N1CCC(n2cc(-c3cc(Sc4ccccc4C#N)c4c(C#N)cnn4c3)cn2)CC1 [Example 447]
